Earlier results in patent publication US20080160065A1 (priority 2006, published 2008).
Like-named read-outs stand apart in the source and are kept apart here.

Settings: injected intramuscularly

time to peak plasma concentration (adults): 2 h
time to peak plasma concentration (children): 1 h
SMILES: CCC[C@@H]1C[C@@H](C(=O)N[C@@H]([C@H]2O[C@H](SC)[C@H](O)[C@@H](O)[C@H]2O)[C@H](C)Cl)N(C)C1 [clindamycin]
